Converted amounts (≈) assume the structure as drawn. Where two headings read alike, the source gives them in different places.
Columns and labels:
[1] = tested on: MiaPaca-2 pancreatic cell line; experiment: MTT cell survival, MiaPaca-2; assay type: cell-based; conditions: Homo sapiens, MIA PaCa-2; MiaPaca-2, MTT
Description: (§1) AKT inhibition leads to cellular apoptosis.

[2] = tested on: Panc-1 pancreatic cell line; experiment: Apoptosis, morphological assay, Panc-1; assay type: cell-based, human; conditions: Panc-1, 20 μmol/L
Description: as §1

[3] = tested on: MiaPaca-2 pancreatic cell line; experiment: Apoptosis, morphological assay, MiaPaca-2; assay type: cell-based, human; conditions: MiaPaca-2, 20 μmol/L
Description: as §1

[4] = tested on: Panc-1 pancreatic cell line; experiment: MTT cell survival, Panc-1; assay type: cell-based; conditions: Homo sapiens; Panc-1, MTT
HT-29 lung cancer cells = experiment: MTT cell survival in HT-29 cells (Table 2); assay type: cell-based; conditions: Homo sapiens
[5] = Cytotoxicity in HT-29 cells; assay type: cell-based, human; conditions: human
Solubility (Table 11) = assay type: physicochemical
[6] = molecular target: T1, AKT (phospho-Ser^473 AKT) in NIH3T3 cells (Mus musculus, UniProt P31750); experiment: Inhibition of phospho-Ser473 AKT in NIH3T3 cells; assay type: cell-based
T1 construct: endogenous in cells; host or cells: NIH3T3
Experimental: […]. […] AKT activity was measured by Western blotting using anti-phosphoSer437 AKT antibody. Downstream targets of AKT were detected also by Western blotting using specific anti-phospho antibodies and anti-actin was used as a loading control.

[7] = Metabolic stability, incubation with HT-29 cells; assay type: in vitro ADME; conditions: human
Description: Compound 6 was too insoluble to obtain data.

[8] = assay type: in vivo
[9] = Pharmacokinetics of compound 316 in scid mice; assay type: in vivo, mouse
[10] = molecular target: AKT (phospho-Ser-AKT) in HT-29 xenograft tumors (Homo sapiens, UniProt P31749); experiment: Tumor phospho-Ser-AKT in HT-29 xenografts; assay type: in vivo, mouse; conditions: 4 hours after a single 250 mg/kg dose
AKT PH domain [11] = molecular target: T2, AKT PH domain (Homo sapiens, UniProt P31749); conditions: purified AKT PH domain, SPR
[12] = molecular target: T3, AKT (phospho-Ser^473-AKT) in HT-29 lung cancer cells (Homo sapiens, UniProt P31749); experiment: Western blot phospho-Ser473-AKT in HT-29 cells (Table 2); assay type: cell-based; conditions: read-out: AKT inhibition (IC50)
T3 construct: endogenous in cells; host or cells: HT-29
Description: as §1

HT-29 cells = experiment: Cytotoxicity in HT-29 cells; assay type: cell-based, human
IRS1 PH domain = molecular target: T4, IRS1 PH domain (Homo sapiens, UniProt P35568); experiment: SPR direct binding, KD, IRS1 PH domain; conditions: Table 10, SPR; for Kd: read-out: 1RS1 PH mKD
T4 sequence (P35568 12-115 limits assumed): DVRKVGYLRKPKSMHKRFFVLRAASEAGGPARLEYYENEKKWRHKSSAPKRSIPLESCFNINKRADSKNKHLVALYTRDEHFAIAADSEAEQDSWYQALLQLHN
Experimental: (§2) Binding assays using SPR and an ELISA competitive binding assay were used to measure the binding affinity (KD) of the compounds to all three PH domains. SPR was carried out as described above. […] Purified GST-PH domains were incubated with increasing concentrations of the compounds under analysis for about 4 hours in 0.2 M carbonate buffer pH 9.4 and were added to the 96-well plate and incubated overnight at 4° C. Following incubation, the plate was washed 4 times with phosphate buffered 0.9% NaCl (PBS), blocked with 3% bovine serum albumin (BSA) in PBS and 0.01% Tween for 1 hour, washed again 4 times with PBS and mouse monoclonal anti-glutathione-S-transferase antibody in 3% BSA (1:2000) was added for 1 hr at room temperature with shaking. The plate was washed 4 times with PBS and an anti-mouse IgG horseradish peroxidase coupled antibody (dilution 1:2000 in 3% BSA) was added for 1 hr. After 4 washes with PBS, 2,2′-azinobis[3-ethylbenzothiazoline-6-sulfonic acid]-diammonium salt (ABST) was added and the reaction was allowed to develop for 30 min.

[13] = molecular target: T5, AKT (phospho-Ser^473 AKT) in HT-29 colon cancer cells (Homo sapiens, UniProt P31749); experiment: Inhibition of phospho-Ser473 AKT in HT-29 colon cancer cells (Table 11); assay type: cell-based; conditions: human HT-29 colon cancer cells
T5 construct: endogenous in cells; host or cells: HT-29
Experimental: AKT activity was measured by Western blotting using anti-phosphoSer437 AKT antibody. Downstream targets of AKT were detected also by Western blotting using specific anti-phospho antibodies and anti-actin was used as a loading control.
AKT activity was measured by Western blotting using anti-phospho-[…] AKT antibody, PDK activity by anti-phospho-Ser241 PDK antibody as well as downstream target PKC using pan-phospho PKC antibodies. Anti-actin was used as a loading control.

PH domain of PDK1 = molecular target: T6, PH domain of PDK1 (Homo sapiens, UniProt O15530); experiment: SPR direct binding, KD, PDK1 PH domain; conditions: Table 10, SPR; read-out: PDK1 PH mKD
T6 sequence (O15530 459-550 limits assumed): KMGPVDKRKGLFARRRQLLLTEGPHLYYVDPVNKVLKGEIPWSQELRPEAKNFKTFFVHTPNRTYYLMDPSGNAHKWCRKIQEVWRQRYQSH
Experimental: as §2

[14] = pH solubility profile / pKa; assay type: physicochemical; conditions: aqueous buffer solutions, from pH-solubility profile
Experimental: These samples were then rotated at room temperature for 24 hours. After rotation, if there was no evidence of precipitated compound, additional compound 104 was added and the dissolution processes were repeated. […] HPLC Assay. […] The run time was 5 minutes and the injection volume was 2 μL.

SKOV-3 ovarian cancer = experiment: Antitumor activity, oral gavage, SKOV-3 xenograft; assay type: in vivo, mouse; conditions: SKOV-3, 250 mg/kg BID × 10 D oral
pancreatic cancer cells = experiment: Cell viability assay (Table 3); conditions: viability assay; cell line not given
AKT PH domain [15] = molecular target: T2, AKT PH domain; experiment: SPR direct binding (Biacore 2000), KD; design: made in house; conditions: purified AKT PH domain
Experimental: as §2

[16] = HT-29 cell culture conditions, read-out: half lives under cell culture conditions
[17] = incubating with HT-29 cells at maximum DMEM concentration at 37° C., read-out: Metabolic half life

T1 sequence (P31750 whole entry): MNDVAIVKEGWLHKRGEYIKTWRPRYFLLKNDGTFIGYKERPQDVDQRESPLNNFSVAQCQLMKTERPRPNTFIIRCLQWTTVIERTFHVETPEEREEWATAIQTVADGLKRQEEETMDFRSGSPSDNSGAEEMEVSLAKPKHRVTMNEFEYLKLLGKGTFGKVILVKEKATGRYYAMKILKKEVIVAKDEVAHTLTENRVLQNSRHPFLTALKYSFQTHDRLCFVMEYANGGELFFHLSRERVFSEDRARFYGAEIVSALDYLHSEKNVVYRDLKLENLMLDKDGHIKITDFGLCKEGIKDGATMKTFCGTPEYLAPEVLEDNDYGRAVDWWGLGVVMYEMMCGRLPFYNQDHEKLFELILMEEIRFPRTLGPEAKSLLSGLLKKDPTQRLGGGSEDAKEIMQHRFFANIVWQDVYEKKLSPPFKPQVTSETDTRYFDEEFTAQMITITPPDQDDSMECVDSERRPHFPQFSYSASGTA
T5 sequence (P31749 whole entry): as the sequence (P31750 whole entry) above, with N2S, S50A, A100T, R112K, T117E, T389K, N410G, D415H counted along it
T2 sequence (P31749 5-108 limits assumed): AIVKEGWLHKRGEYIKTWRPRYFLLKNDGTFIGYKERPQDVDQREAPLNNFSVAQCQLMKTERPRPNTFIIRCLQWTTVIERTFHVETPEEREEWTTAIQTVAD
Sequence of AKT (phospho-Ser-AKT) in HT-29 xenograft tumors (P31749 whole entry, the tested form may be a part): as the sequence (P31750 whole entry) above, with N2S, S50A, A100T, R112K, T117E, T389K, N410G, D415H counted along it
T3 sequence (P31749 whole entry): as the sequence (P31750 whole entry) above, with N2S, S50A, A100T, R112K, T117E, T389K, N410G, D415H counted along it

SMILES: COCCOCCOCC(=O)Nc1ccc(S(=O)(=O)Nc2nncs2)cc1 [Compound 103]
- IC50 [1]: > 100 µM
- Apoptosis at 20 μmol/L [2]: 11.4 ± 0.5/ %
- Apoptosis at 20 μmol/L [3]: 18.7 ± 3.1%
- IC50 [4]: > 100 µM

SMILES: COc1cc(NS(=O)(=O)c2ccc(NS(=O)(=O)c3c(C)noc3C)cc2)nc(OC)n1 [Compound 415]
- IC50 (HT-29 lung cancer cells): 3.1 µM

SMILES: CC1=NN(C(=O)c2ccccc2)C(=O)C1/N=N/c1ccc(S(=O)(=O)Nc2ncccn2)cc1 (stereo not drawn) [Compound 331]
- IC50 [5]: 14 µM
- solubility (Solubility (Table 11)): 28.3 µM (≈ 13.1 µg/mL)
- IC50 [6]: 11 µM
- half-life [7, 16]: 1 to 2 h
- half-life [7, 17]: 1.03 h

SMILES: CC1=NN(C(=O)c2ccc(Cl)cc2)C(=O)C1/N=N/c1ccc(S(=O)(=O)Nc2ncccn2)cc1 (stereo not drawn) [Compound 316, (E)-4-((1-(4-chlorobenzoyl)-3-methyl-5-oxo-4,5-dihydro-1H-pyrazol-4-yl)diazenyl)-N-(pyrimidin-2-yl)benzenesulfonamide]
- toxicity of repeated doses ([8]; five daily doses of 250 mg/kg i.p.): moderate neutropenia
- toxicity of a single dose ([8]; single dose of up to 250 mg/kg i.p.): no toxicity
- solubility (Solubility (Table 11)): 17.9 µM (≈ 8.91 µg/mL)
- IC50 [6]: 4 µM
- peak plasma concentration ([9]; single dose 250 mg/kg i.p.): 1.4 nM
- peak plasma concentration ([9]; single dose 250 mg/kg oral): 600 nM
- tumor phospho-Ser-AKT [10]: inhibition of tumor phospho-Ser-AKT was observed
- half-life [7, 16]: 1 to 2 h
- half-life [7, 17]: 1.03 h

SMILES: CCCCCCCC(=O)OC[C@H](COP(=O)(O)O[C@H]1[C@H](O)[C@@H](OP(=O)(O)O)[C@H](OP(=O)(O)O)[C@@H](OP(=O)(O)O)[C@H]1O)OC(=O)CCCCCCC [diC8-PtdIns(3,4,5)P3]
- Ki (AKT PH domain [11]): ~0.3 µM

SMILES: O=C(O)c1ccccc1C(=O)Nc1ccccc1SCCS(=O)(=O)c1ccc(Cl)cc1 [Compound 389]
- IC50 [12]: 5 µM
- IC50 (HT-29 lung cancer cells): > 100 µM

SMILES: CC1=NN(C(=O)c2ccc(O)cc2)C(=O)C1/N=N/c1ccc(S(=O)(=O)Nc2ncccn2)cc1 (stereo not drawn) [Compound 360]
- Cytotoxicity (IC50 μM) (HT-29 cells): no cytotoxicity
- IC50 [5]: > 100 µM
- 1RS1 PH mKD (IRS1 PH domain): low KD
- Kd (IRS1 PH domain): 1.74 ± 0.41 µM
- IC50 [13]: > 20 µM
- solubility (Solubility (Table 11)): 13.1 µM (≈ 6.28 µg/mL)
- IC50 [6]: 5 µM
- half-life [7, 16]: 1 to 2 h
- half-life [7, 17]: 2.3 h
- Kd (PH domain of PDK1): 0.42 µM

SMILES: CCCCCCCCCCCCc1ccc(S(=O)(=O)Nc2nncs2)cc1 [Compound 104, 4-Dodecyl-N-(1,3,4-thiadiazol-2-yl)benzenesulfonamide]
- pKa ([14]; read-out: acidic pKa): 7.9 to 8.3
- pKa ([14]; read-out: additional pKa): > 9
- Growth rate (SKOV-3 ovarian cancer): 122 ± 16 mm^3/10 days
- T/C (SKOV-3 ovarian cancer): 28.3%
- Apoptosis at 20 μmol/L [3]: 31.3 ± 1.6%

SMILES: Nc1ccc(S(=O)(=O)Nc2nncs2)cc1 [Compound 100, 4-Amino-N-(1,3,4-thiadiazol-2-yl)benzenesulfonamide]
- Cell viability (IC50) (pancreatic cancer cells): N/I
- IC50 [1]: > 100 µM
- Apoptosis at 20 μmol/L [2]: 24.3 ± 3.2/ %
- Apoptosis at 20 μmol/L [3]: 25.7 ± 2.6%
- IC50 [4]: > 100 µM

SMILES: CC(=O)Nc1ccc(S(=O)(=O)Nc2nncs2)cc1 [Compound 102, N-(4-(N-1,3,4-Thiadiazol-2-ylsulfamoyl)phenyl)acetamide]
- KD (AKT PH domain [15]): did not appear to bind
- IC50 [1]: > 100 µM
- IC50 [4]: > 100 µM

SMILES: NS(=O)(=O)c1nnc(NS(=O)(=O)c2cccc3cccnc23)s1 [Compound 345]
- IC50 (HT-29 lung cancer cells): > 100 µM

SMILES: CC1=NN(C(=O)c2ccc(N)cc2)C(=O)C1/N=N/c1ccc(S(=O)(=O)Nc2ncccn2)cc1 (stereo not drawn) [Compound 333]
- Cytotoxicity (IC50 μM) (HT-29 cells): no cytotoxicity
- IC50 [5]: > 100 µM
- 1RS1 PH mKD (IRS1 PH domain): low KD
- Kd (IRS1 PH domain): 0.14 ± 0.02 µM
- IC50 [13]: > 20 µM
- solubility (Solubility (Table 11)): 12.9 µM (≈ 6.17 µg/mL)
- half-life [7, 17]: > 8 h

SMILES: CCCCCCCCCC(=O)Nc1ccc(S(=O)(=O)Nc2nncs2)cc1 [Compound 101, N-(4-(N-1,3,4-Thiadiazol-2-ylsulfamoyl)phenyl)decanamide]
- IC50 [1]: 90 µM
- Apoptosis at 20 μmol/L [2]: 28.7 ± 0.3/ %
- Apoptosis at 20 μmol/L [3]: 20.0 ± 1.5%
- IC50 [4]: 127 µM

SMILES: CC1=NN(C(=O)c2ccc(C(C)(C)C)cc2)C(=O)C1/N=N/c1ccc(S(=O)(=O)Nc2ncccn2)cc1 (stereo not drawn) [Compound 332]
- IC50 [5]: 25 µM
- IC50 [13]: > 20 µM
- solubility (Solubility (Table 11)): 28.6 µM (≈ 14.9 µg/mL)
- IC50 [6]: > 20 µM
- half-life [7, 16]: 1 to 2 h
- half-life [7, 17]: 1.52 h

— patent US20120189670A1, “PHARMACEUTICAL COMPOSITIONS AND FORMULATIONS INCLUDING INHIBITORS OF THE PLECKSTRIN HOMOLOGY DOMAIN AND METHODS FOR USING SAME” (priority 2009, published 2012)
